Legend:
[1] = tested on: voltage-dependent cation channel; experiment: Whole-cell recording of inward current in isolated olfactory receptor cells; type: cell-based, Cynops pyrrhogaster
Method: Olfactory receptor cells were isolated from newts (Cynops pyrrhogaster) through a known method (Kurahashi et al., J. Physiol. (1989), 419: 177-192) and bathed in a normal Ringer's solution. More specifically, each newt which had been hibernated in ice-water was double-pithed, and the skull thereof was cut, to thereby remove the olfactory membrane. The removed olfactory membrane was incubated in 0.1% collagenase solution at 37° C. for five minutes. After washing off collagenase, the membrane tissue was broken by means of a glass pipette, to thereby isolate olfactory cells. The normal Ringer's solution had the following composition: NaCl 110 mM, KCl 3.7 mM, CaCl2 3 mM, MgCl2 1 mM, glucose 15 mM, sodium pyruvate 1 mM, HEPES 2 mM, and Phenol Red 0.001% (w/v), with a pH of 7.4 (adjusted with NaOH).
The membrane current of the isolated olfactory cells was recorded through the whole-cell recording method, while the membrane potential was fixed (Kawai et al., J. Gen. Physiol. (1997), vol. 109: 265-272). The electrode employed was produced from borosilicate glass capillary (diameter: 1.2 mm) by means of a puller for electrode fabrication (PP-830, product of Narishige Scientific Instruments). […] Then, an electrode solution was added in the electrode, and an Ag—AgCl wire was inserted into the electrode. The Ag—AgCl wire was connected to a patch-clamp amplifier (Axopatch 1D, 200B, product of Axon Instrument), whereby fixation of the membrane potential and depolarization stimulation were performed. The employed electrode solution had the following composition: KCl 120 mM, HEPES 2 mM, and Phenol Red 0.001% (w/v), with a pH of 7.4 (adjusted with KOH). The membrane current was recorded by a computer which was connected by the mediation of the patch-clamp amplifier and an A/D converter (Digidata 1320, product of Axon Instrument). Each test substance was sprayed to the cells for stimulation, by means of a pressure-controller. The pressure controller is an apparatus which reduces the pressure of compressed air supplied by means of an air-compressor to a specific value under computer-controlled conditions and which feeds the compressed air for a predetermined period of time to a tail of the glass pipette in which the test substance has been charged (Ito et al., The Japanese Journal of Physiology, 1995, vol. 57, 127-133).
In order to investigate the effect of the test substance on the voltage-dependent cation channel activity, the membrane potential of the isolated olfactory cells was fixed to −100 mV, and depolarized to −20 mV for 20 ms at intervals of 200 ms. The peak amplitude of the inward current elicited immediately after depolarization was measured. Each of the test substances shown in Table 1 (1 μL) was mixed with the normal Ringer's solution (1 mL). Under continuous depolarization stimulation, the mixture was sprayed toward the olfactory cells (720 ms, at 50 kPa) through a glass pipette (tip diameter: 1 μm) that was placed such that the tip of the pipette was located in the vicinity ([…]) of the olfactory cells to add the mixture to the olfactory cells, and the change in inward current was monitored. Stimulation of one olfactory cell by the test substance was performed three times, and the three inward currents obtained from the cell were averaged. Each test substance was tested by three olfactory cells, and the three inward currents obtained from the cells were averaged. During the test, in very rare cases, the olfactory receptor responded to stimulation by the test substance, and inward current attributed to a CNG channel was observed. However, such cases were eliminated for evaluation. One conceivable reason for occurrence of such a case is that the test substance acts as an […] to the olfactory receptor on the olfactory cell employed in the test. CNG channel current is readily distinguishable from voltage-dependent channel current in terms of amplitude, peak shape, and duration. […]

[2] = tested on: isovaleric acid (malodorous substance); experiment: Olfactory masking test based on sensory evaluation with 20 specialists; type: in vivo; design: key: 0 = no masking effect, 5 = complete masking effect; conditions: isovaleric acid (1%) 2 μL, test substance 4 μl, vaporized and admixed in PP bottle; scale 0 (No masking effect) to 5 (Complete masking effect)
Method: An olfactory masking test based on sensory evaluation was performed with 20 specialists. Isovaleric acid (1%) was used as a malodorous substance, and each of the substances listed in Table 2 was employed as a masking material. The malodorous substance (2 μL) and each test substance (4 μl) were separately absorbed by cotton balls (diameter: 1 cm), and placed in each injection syringe (capacity: 50 mL) at room temperature for 12 hours to vaporized the substance therein. Both the vaporized malodorous substance and the vaporized test substance were injected into a PP bottle (capacity: 500 mL) with a cap and admixed in the bottle. In evaluation, each specialist slightly opened the cap of the PP bottle and smelled the odor in the bottle, whereby the masking score was determined. The masking score was evaluated by the following six criteria, based on the intensity of odor in a PP bottle to which only the malodorous substance had been added.
1: Only slight masking effect
3: Satisfactory masking effect
4: Substantially complete masking effect
5: Complete masking effect

[3] = test substance 1 μL in 1 mL normal Ringer's solution, sprayed 720 ms at 50 kPa, depolarized from −100 mV to −20 mV, (1−b/a)×100, average of three cells
[4] = values calculated in the experiments of Example 1, repeated in Table 3

| Structure (SMILES) | Percent inward current inhibition [1, 3] [%] | Percent inward current inhibition [1, 4] [%] | Masking score [2] |
| --- | --- | --- | --- |
| CC12CCC(CC1)C(C)(C)O2 [1,8-Cineole] | 46.5 | 46.5 | 3.6 |
| CCC(O)COC1CCCCC1C(C)(C)C (centres unmarked) [1-(2-tert-Butylcyclohexyloxy)-2-butanol] | 27.1 | 27.1 | 1.7 |
| CC1=CC(C)C(C=O)CC1 (centres unmarked) [2,4-Dimethyl-3-cyclohexene-1-carboxaldehyde] | 79.9 | 79.9 | 4.5 |
| CC(=CCC1CC=C(C)C1(C)C)CO (centres unmarked) [2-Methyl-4-(2,2,3-trimethyl-3-cyclopenten-1-yl)-2-buten-1-ol] | 105.6 | – | – |
| CC(C)(O)CCCC1=CCC(C=O)CC1 (centres unmarked) [4-(4-Hydroxy-4-methylpentyl)-3-cyclohexene-1-carboxaldehyde] | 35.7 | 35.7 | 1.7 |
| COc1ccc(C=O)cc1 [Anisaldehyde] | 89.3 | 89.3 | 3.9 |
| O=Cc1ccccc1 [Benzaldehyde] | 95.4 | 95.4 | 4.6 |
| CC(=O)OCc1ccccc1 [Benzyl acetate] | 110.8 | – | – |
| O=C(OCc1ccccc1)c1ccccc1 [Benzyl benzoate] | 10.7 | 10.7 | 1.6 |
| CC(C)=CCCC(C)=CC=O [Citral] | 110.6 | 110.6 | 3.9 |
| C=CC(C)CCCC(C)(C)O (centres unmarked) [Dihydromyrcenol] | 109.0 | 109.0 | 4.8 |
| CCOC(=O)C(C)C1CCCCC1 (centres unmarked) [Ethyl 2-cyclohexylpropionate] | 48.7 | 48.7 | 3.0 |
| CCOC(=O)C(C)CC (centres unmarked) [Ethyl 2-methylbutyrate] | 42.0 | – | – |
| CCOC(=O)C12CCCC1C1CCC2C1 (centres unmarked) [Ethyltricyclo[5.2.1.0^2,6]decane-2-carboxylate] | 11.6 | 11.6 | 1.9 |
| C=CCc1ccc(O)c(OC)c1 [Eugenol] | 105.0 | – | – |
| CC(C)=CCC/C(C)=C/CO [Geraniol] | 90.1 | 90.1 | 3.9 |
| CC(=O)OCCC(C)C [Isoamyl acetate] | 92.0 | 92.0 | 4.5 |
| C=CC(C)(O)CCC=C(C)C (centres unmarked) [Linalool] | 106.5 | 106.5 | 4.1 |
| C=CC(C)(CCC=C(C)C)OC(C)=O (centres unmarked) [Linalyl acetate] | 43.3 | 43.3 | 3.0 |
| CCCCCC1C(=O)CCC1CC(=O)OC (centres unmarked) [Methyl dihydrojasmonate] | 107.1 | – | – |
| CC/C=C\CCO [cis-3-Hexenol] | 78.7 | 78.7 | 4.5 |
| CCCCCCCCC=O [n-Nonanal] | 107.4 | – | – |
| CC(=O)OC1CCCCC1C(C)(C)C (centres unmarked) [o-tert-Butylcyclohexyl acetate] | 23.8 | 23.8 | 1.8 |
| CC(C=O)Cc1ccc(C(C)(C)C)cc1 (stereo not drawn) [p-tert-Butyl-α-methylhydrocinnamaldehyde] | 57.9 | 57.9 | – |
| C/C=C/C(=O)C1=C(C)CCCC1(C)C [β-Damascone] | 56.1 | 56.1 | 2.4 |
| OCCc1ccccc1 [β-Phenylethyl alcohol] | 82.6 | 82.6 | 2.9 |

From US9012153B2, “Method for screening olfactory sensibility inhibitor” (Kao Corporation, priority 2008, dated 2015)
